Measurements taken from patent publication US20240197666A1, “DITERPENOID COMPOUNDS THAT ACT ON PROTEIN KINASE C (PKC)” (K-Gen Therapeutics, Inc., priority 2021, published 2024).

Experiments:
C1b domain of human PKCε = target: T1, C1b domain of human PKCε (Homo sapiens, UniProt Q02156); experiment: biochemical; assay type: binding; details: 3H-PDBu competition
T1 construct: Genes encoding C1b domains of human PKCα, δ, ε, θ, and PKD1 (PKCμ) were synthesized; made in house; host or cells: E. coli BL21(DE3)
How it was run: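 Recombinant GST-C1b domains (E. coli-expressed) or full-length human PKC competed against tracer ^3H-PDBu; incubation 10 min at 37°C then 20 min on ice, bound radioligand filter-trapped and scintillation-counted. IC50 fitted and converted to Ki via Cheng-Prusoff using experimentally determined Kd per protein preparation.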

Hela cells = experiment: In vitro scratch wound healing assay; assay type: cell-based; details: 24h
Description: Scratch wound healing assay creates a gap by scratching a confluent monolayer of cells to mimic a wound and then measures the ability of cells to fill up the gap (wound) in the presence of DMSO or test compounds. 1.2-1.5×10^5 Hela cells in 1 mL media RPMI-1640 with 10% FBS were seeded in 24-well plates. Cells were starved for overnight in the same media without FBS when cells became confluent. After starvation, a scratch was made in the middle of the well and the plates were washed three times to remove detached cells. DMSO or different concentrations of compounds were diluted and added to the cells. The assay plates were put into Incucyte S3 and scanned with 4× scanner setting regularly. The imaging results were exported and the wound area was analyzed by ImageJ. Wound healing or closure was calculated by the following formula: wound healing %=(wound area at 0h−wound area at 24h)/wound area 0h*100%. Relative wound healing was calculated by dividing wound healing % of compound treatment to that of DMSO*100%.

human PBMC cells = experiment: Cytokine/chemokine gene expression in human PBMC (TaqMan); assay type: cell-based; details: 4 h;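 as to Gene Relative Expression CCL2: 2^-ΔΔCt fold change vs DMSO control normalized to 18S and GAPDH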;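 as to Gene Relative Expression GM-CSF: 2^-ΔΔCt fold change vs DMSO control normalized to 18S and GAPDH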;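 as to Gene Relative Expression IFN-α: 2^-ΔΔCt fold change vs DMSO control normalized to 18S and GAPDH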;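 as to Gene Relative Expression IFNγ: 2^-ΔΔCt fold change vs DMSO control normalized to 18S and GAPDH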
Description: Each treatment condition was performed in duplicates.

T1 sequence (Q02156 242-292 limits assumed): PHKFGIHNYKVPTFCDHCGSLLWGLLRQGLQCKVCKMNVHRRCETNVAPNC

CC1=C[C@H]2[C@@]3(O)[C@H](C)C[C@]4(OC(=O)[C@@H](N)CC5CCCCC5)[C@H]([C@@H]3C=C(CO)C[C@]2(O)C1=O)C4(C)C
Ki (C1b domain of human PKCε): 10 to 30 nM
Relative wound healing to control (%) (Hela cells; 30 nM): 123%
Relative wound healing to control (%) (Hela cells; 100 nM): 351%
Relative wound healing to control (%) (Hela cells; 300 nM): 287%

CC1=C[C@H]2[C@@]3(O)[C@H](C)C[C@]4(OC(=O)[C@@H](N)C5Cc6ccccc6C5)[C@H]([C@@H]3C=C(CO)C[C@]2(O)C1=O)C4(C)C
Ki (C1b domain of human PKCε): 10 to 30 nM
Relative wound healing to control (%) (Hela cells; 30 nM): 210%
Relative wound healing to control (%) (Hela cells; 100 nM): 248%
Relative wound healing to control (%) (Hela cells; 300 nM): 238%

CC1=C[C@H]2[C@@]3(O)[C@H](C)C[C@]4(OC(=O)[C@H](N)CCCCCCc5ccccc5)[C@H]([C@@H]3C=C(CO)C[C@]2(O)C1=O)C4(C)C
Ki (C1b domain of human PKCε): 10 to 30 nM
Gene Relative Expression CCL2 (human PBMC cells; 0.03 μM): 4.55
Gene Relative Expression GM-CSF (human PBMC cells; 0.03 μM): 1.89
Gene Relative Expression IFN-α (human PBMC cells; 0.03 μM): 1.66
Gene Relative Expression IFNγ (human PBMC cells; 0.03 μM): 1.62
Gene Relative Expression IL-1β (human PBMC cells; 0.03 μM): 0.54
Gene Relative Expression IL-2 (human PBMC cells; 0.03 μM): 1.71
Gene Relative Expression IL-6 (human PBMC cells; 0.03 μM): 0.74
Gene Relative Expression IL-8 (human PBMC cells; 0.03 μM): 0.80
Gene Relative Expression IL-10 (human PBMC cells; 0.03 μM): 1.27
Gene Relative Expression IL-12p40 (human PBMC cells; 0.03 μM): 0.74
Gene Relative Expression IL-12p70 (human PBMC cells; 0.03 μM): 1.02
Gene Relative Expression IL-13 (human PBMC cells; 0.03 μM): 0.40
Gene Relative Expression IL-18 (human PBMC cells; 0.03 μM): 0.47
Gene Relative Expression ISG15 (human PBMC cells; 0.03 μM): 0.97
Gene Relative Expression MIP1a (CCL3) (human PBMC cells; 0.03 μM): 1.86
Gene Relative Expression MX1 (human PBMC cells; 0.03 μM): 0.65
Gene Relative Expression OAS1 (human PBMC cells; 0.03 μM): 0.64
Gene Relative Expression TNF-α (human PBMC cells; 0.03 μM): 1.38
Gene Relative Expression CCL2 (human PBMC cells; 0.10 μM): 3.12
Gene Relative Expression GM-CSF (human PBMC cells; 0.10 μM): 7.74
Gene Relative Expression IFN-α (human PBMC cells; 0.10 μM): 0.73
Gene Relative Expression IFNγ (human PBMC cells; 0.10 μM): 3.47
Gene Relative Expression IL-1β (human PBMC cells; 0.10 μM): 1.58
Gene Relative Expression IL-2 (human PBMC cells; 0.10 μM): 7.65
Gene Relative Expression IL-4 (human PBMC cells; 0.10 μM): 1.61
Gene Relative Expression IL-6 (human PBMC cells; 0.10 μM): 1.14
Gene Relative Expression IL-8 (human PBMC cells; 0.10 μM): 0.53
Gene Relative Expression IL-10 (human PBMC cells; 0.10 μM): 0.48
Gene Relative Expression IL-12p40 (human PBMC cells; 0.10 μM): 0.45
Gene Relative Expression IL-12p70 (human PBMC cells; 0.10 μM): 0.93
Gene Relative Expression IL-13 (human PBMC cells; 0.10 μM): 47.45
Gene Relative Expression IL-18 (human PBMC cells; 0.10 μM): 0.09
Gene Relative Expression ISG15 (human PBMC cells; 0.10 μM): 1.16
Gene Relative Expression MIP1a (CCL3) (human PBMC cells; 0.10 μM): 2.39
Gene Relative Expression MX1 (human PBMC cells; 0.10 μM): 0.72
Gene Relative Expression OAS1 (human PBMC cells; 0.10 μM): 0.55
Gene Relative Expression TNF-α (human PBMC cells; 0.10 μM): 4.04
Gene Relative Expression CCL2 (human PBMC cells; 0.3 μM): 2.09
Gene Relative Expression GM-CSF (human PBMC cells; 0.3 μM): 10.50
Gene Relative Expression IFN-α (human PBMC cells; 0.3 μM): 0.95
Gene Relative Expression IFNγ (human PBMC cells; 0.3 μM): 18.57
Gene Relative Expression IL-1β (human PBMC cells; 0.3 μM): 1.53
Gene Relative Expression IL-2 (human PBMC cells; 0.3 μM): 3.41
Gene Relative Expression IL-4 (human PBMC cells; 0.3 μM): 2.57
Gene Relative Expression IL-6 (human PBMC cells; 0.3 μM): 4.85
Gene Relative Expression IL-8 (human PBMC cells; 0.3 μM): 0.59
Gene Relative Expression IL-10 (human PBMC cells; 0.3 μM): 0.06
Gene Relative Expression IL-12p40 (human PBMC cells; 0.3 μM): 0.69
Gene Relative Expression IL-12p70 (human PBMC cells; 0.3 μM): 0.61
Gene Relative Expression IL-13 (human PBMC cells; 0.3 μM): 78.90
Gene Relative Expression IL-18 (human PBMC cells; 0.3 μM): 0.04
Gene Relative Expression ISG15 (human PBMC cells; 0.3 μM): 1.14
Gene Relative Expression MIP1a (CCL3) (human PBMC cells; 0.3 μM): 3.37
Gene Relative Expression MX1 (human PBMC cells; 0.3 μM): 0.57
Gene Relative Expression OAS1 (human PBMC cells; 0.3 μM): 0.42
Gene Relative Expression TNF-α (human PBMC cells; 0.3 μM): 4.13
Relative wound healing to control (%) (Hela cells; 10 nM): 221%
Relative wound healing to control (%) (Hela cells; 30 nM): 239%
Relative wound healing to control (%) (Hela cells; 100 nM): 263%

CC1=C[C@H]2[C@@]3(O)[C@H](C)C[C@]4(OC(=O)[C@@H](N)[C@]56C[C@H]7C[C@H](C[C@H](C7)C5)C6)[C@H]([C@@H]3C=C(CO)C[C@]2(O)C1=O)C4(C)C
Gene Relative Expression CCL2 (human PBMC cells; 0.01 μM): 5.58
Gene Relative Expression GM-CSF (human PBMC cells; 0.01 μM): 1.59
Gene Relative Expression IFN-α (human PBMC cells; 0.01 μM): 0.78
Gene Relative Expression IFNγ (human PBMC cells; 0.01 μM): 1.69
Gene Relative Expression IL-1β (human PBMC cells; 0.01 μM): 0.59
Gene Relative Expression IL-2 (human PBMC cells; 0.01 μM): 3.06
Gene Relative Expression IL-4 (human PBMC cells; 0.01 μM): 0.84
Gene Relative Expression IL-6 (human PBMC cells; 0.01 μM): 1.17
Gene Relative Expression IL-8 (human PBMC cells; 0.01 μM): 0.71
Gene Relative Expression IL-10 (human PBMC cells; 0.01 μM): 1.12
Gene Relative Expression IL-12p40 (human PBMC cells; 0.01 μM): 0.89
Gene Relative Expression IL-12p70 (human PBMC cells; 0.01 μM): 1.03
Gene Relative Expression IL-13 (human PBMC cells; 0.01 μM): 3.10
Gene Relative Expression IL-18 (human PBMC cells; 0.01 μM): 0.26
Gene Relative Expression ISG15 (human PBMC cells; 0.01 μM): 1.01
Gene Relative Expression MIP1a (CCL3) (human PBMC cells; 0.01 μM): 1.65
Gene Relative Expression MX1 (human PBMC cells; 0.01 μM): 0.84
Gene Relative Expression OAS1 (human PBMC cells; 0.01 μM): 0.74
Gene Relative Expression TNF-α (human PBMC cells; 0.01 μM): 2.39
Gene Relative Expression CCL2 (human PBMC cells; 0.03 μM): 3.59
Gene Relative Expression GM-CSF (human PBMC cells; 0.03 μM): 8.38
Gene Relative Expression IFN-α (human PBMC cells; 0.03 μM): 0.46
Gene Relative Expression IFNγ (human PBMC cells; 0.03 μM): 3.82
Gene Relative Expression IL-1β (human PBMC cells; 0.03 μM): 2.26
Gene Relative Expression IL-2 (human PBMC cells; 0.03 μM): 7.78
Gene Relative Expression IL-4 (human PBMC cells; 0.03 μM): 2.54
Gene Relative Expression IL-6 (human PBMC cells; 0.03 μM): 0.86
Gene Relative Expression IL-8 (human PBMC cells; 0.03 μM): 0.54
Gene Relative Expression IL-10 (human PBMC cells; 0.03 μM): 0.41
Gene Relative Expression IL-12p40 (human PBMC cells; 0.03 μM): 0.32
Gene Relative Expression IL-12p70 (human PBMC cells; 0.03 μM): 0.87
Gene Relative Expression IL-13 (human PBMC cells; 0.03 μM): 52.65
Gene Relative Expression IL-18 (human PBMC cells; 0.03 μM): 0.06
Gene Relative Expression ISG15 (human PBMC cells; 0.03 μM): 1.33
Gene Relative Expression MIP1a (CCL3) (human PBMC cells; 0.03 μM): 2.82
Gene Relative Expression MX1 (human PBMC cells; 0.03 μM): 1.01
Gene Relative Expression OAS1 (human PBMC cells; 0.03 μM): 0.78
Gene Relative Expression TNF-α (human PBMC cells; 0.03 μM): 4.48
Gene Relative Expression CCL2 (human PBMC cells; 0.10 μM): 0.38
Gene Relative Expression GM-CSF (human PBMC cells; 0.10 μM): 16.06
Gene Relative Expression IFN-α (human PBMC cells; 0.10 μM): 0.31
Gene Relative Expression IFNγ (human PBMC cells; 0.10 μM): 18.08
Gene Relative Expression IL-1β (human PBMC cells; 0.10 μM): 3.00
Gene Relative Expression IL-2 (human PBMC cells; 0.10 μM): 3.29
Gene Relative Expression IL-4 (human PBMC cells; 0.10 μM): 2.77
Gene Relative Expression IL-6 (human PBMC cells; 0.10 μM): 6.72
Gene Relative Expression IL-8 (human PBMC cells; 0.10 μM): 0.60
Gene Relative Expression IL-10 (human PBMC cells; 0.10 μM): 0.09
Gene Relative Expression IL-12p40 (human PBMC cells; 0.10 μM): 0.22
Gene Relative Expression IL-12p70 (human PBMC cells; 0.10 μM): 0.76
Gene Relative Expression IL-13 (human PBMC cells; 0.10 μM): 101.38
Gene Relative Expression IL-18 (human PBMC cells; 0.10 μM): 0.06
Gene Relative Expression ISG15 (human PBMC cells; 0.10 μM): 1.54
Gene Relative Expression MIP1a (CCL3) (human PBMC cells; 0.10 μM): 5.73
Gene Relative Expression MX1 (human PBMC cells; 0.10 μM): 0.99
Gene Relative Expression OAS1 (human PBMC cells; 0.10 μM): 0.69
Gene Relative Expression TNF-α (human PBMC cells; 0.10 μM): 6.25
Relative wound healing to control (%) (Hela cells; 3 nM): 191%
Relative wound healing to control (%) (Hela cells; 10 nM): 198%
Relative wound healing to control (%) (Hela cells; 30 nM): 272%
